Measurements: patent US8278310B2, “Amine salts of a CRTH2 antagonist” (Actimis Pharmaceuticals, Inc., priority 2007, dated 2012)

Assays:
[1] = Aqueous solubility of the salts from base screening; format: physicochemical; details: salt of the acid of Formula I with the named base
[2] = molecular target: T1, CRTH2 (Homo sapiens, UniProt Q9Y5Y4); assay: Competitive radioligand (3H-PGD2) binding assay using CRTH2-transfected cells; details: 1 nM 3H-PGD2, FIG. 20
T1 construct: expressed in transfected cells
T1 sequence (Q9Y5Y4 1-395): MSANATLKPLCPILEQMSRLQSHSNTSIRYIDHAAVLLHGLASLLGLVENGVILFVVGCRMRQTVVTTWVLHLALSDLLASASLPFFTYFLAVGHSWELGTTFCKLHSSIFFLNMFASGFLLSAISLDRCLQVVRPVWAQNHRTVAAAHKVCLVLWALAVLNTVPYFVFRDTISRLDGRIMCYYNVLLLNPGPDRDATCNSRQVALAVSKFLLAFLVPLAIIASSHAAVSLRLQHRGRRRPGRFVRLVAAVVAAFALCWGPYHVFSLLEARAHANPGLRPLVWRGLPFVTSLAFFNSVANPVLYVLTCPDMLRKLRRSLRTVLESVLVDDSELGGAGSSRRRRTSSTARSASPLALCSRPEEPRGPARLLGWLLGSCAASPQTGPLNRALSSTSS
Protocol: The surface expression of CRTH2 on the transfected cell lines was monitored periodically during culture and prior to each competitive radioligand binding assay. […] The cells were then washed in 2 mL of FACS buffer (PBS containing 1% BSA (Fraction V) and 0.1% sodium azide. The cells were subsequently incubated on ice with a FITC-conjugated anti-rat antibody (goat anti-rat Ig-FITC). After washed with cold FACS buffer, the cells were analyzed using a FACScan II analyzer and CellQuest software, both from Becton Dickinson (Mountain View, Calif.).
The test compounds were dissolved in DMSO at a concentration of 100 mM as stock solutions. Serial dilutions from 10 μM were made in binding buffer prior to assay. Transfected cells were resuspended in binding buffer (50 mM Tris-HCl, 40 mM MgCl2, and 0.1% bovine serum albumin, at pH 7.4) at a concentration of 4×10^6/mL at room temperature. Transfected cells were then seeded in U-bottom polypropylene 96-well plates (Fisher) by adding 50 μL of the cell suspension, followed by addition of 10 μL of ^3H-PGD2, 10 μL of the test compound solutions at a series of concentrations or controls, 30 μL of the binding buffer to bring the final volume to 100 μL. […] Scintillant (50 μL; Microscint™20, Perkin Elmer, Boston, Mass.) was added to each well and the radioactivity was counted on a TopCount (Packard Bioscience, Meriden, Conn.). […]

[3] = molecular target: T2, DP1 (Homo sapiens, UniProt Q13258); assay: Competitive radioligand (3H-PGD2) binding assay using DP1-transfected cells; details: CRTH2- versus DP1-transfected cells, FIGS. 20 and 21
T2 sequence (Q13258 1-359): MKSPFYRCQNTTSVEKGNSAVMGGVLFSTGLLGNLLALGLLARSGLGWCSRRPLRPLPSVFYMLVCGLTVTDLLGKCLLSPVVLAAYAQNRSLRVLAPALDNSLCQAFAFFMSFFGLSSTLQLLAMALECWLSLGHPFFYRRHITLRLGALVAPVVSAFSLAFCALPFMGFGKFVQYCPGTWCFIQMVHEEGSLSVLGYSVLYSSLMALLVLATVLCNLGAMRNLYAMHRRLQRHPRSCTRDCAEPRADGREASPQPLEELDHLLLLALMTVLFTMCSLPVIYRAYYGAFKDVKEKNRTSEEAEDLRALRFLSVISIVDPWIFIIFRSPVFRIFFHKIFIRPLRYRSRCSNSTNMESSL
Protocol: The binding affinity and selectivity of the amine salts of 4,6-bis(dimethylamino)-2-(4-(4-(trifluoromethyl)benzamido)benzyl)pyrimidin-5-yl}acetic acid provided herein were evaluated using a competitive radioligand binding assay with stably-transfected cell lines expressing CRTH2 or DP1.
The CRTH2 and DP1 stable cell lines were generated according to the procedure described by Sugimoto et al. (J. Pharm. Exp. Therap. 2003, 305, 347-352). These cell lines were maintained in RPMI 1640 culture medium containing HEPES buffer (25 mM), FCS (10%), L-glutamine (2 mM), penicillin (10 IU/mL), streptomycin (100 μg/mL), and puromycin (1 μg/mL).
Radioligand binding analyses were performed according to the methods of Sugimoto et al. (J. Pharm. Exp. Therap. 2003, 305, 347-352; Eur. J. Pharmacol. 2005, 524, 30-37). The test compounds were dissolved in DMSO at a concentration of 100 mM as stock solutions. Serial dilutions from 10 μM were made in binding buffer prior to assay. Transfected cells were resuspended in binding buffer (50 mM Tris-HCl, 40 mM MgCl2, and 0.1% bovine serum albumin, at pH 7.4) at a concentration of 4×10^6/mL at room temperature. […] Scintillant (50 μL; Microscint™20, Perkin Elmer, Boston, Mass.) was added to each well and the radioactivity was counted on a TopCount (Packard Bioscience, Meriden, Conn.). […]

In the case of CN(C)c1nc(Cc2ccc(NC(=O)c3ccc(C(F)(F)F)cc3)cc2)nc(N(C)C)c1CC(=O)O.c1ccc(CNCCNCc2ccccc2)cc1 [Benzathine, Benzathine Salt of {4,6-Bis(dimethylamino)-2-(4-(4-(trifluoromethyl)benzamido)benzyl)pyrimidin-5-yl}Acetic Acid], the “Aqueous Solubility at 25° C.” value [1] is reported as 80 µg/mL.

In the case of CN(C)c1nc(Cc2ccc(NC(=O)c3ccc(C(F)(F)F)cc3)cc2)nc(N(C)C)c1CC(=O)O [Formula I, {4,6-bis(dimethyl-amino)-2-(4-(4-(trifluoro-methyl)benzamido)benzyl)pyrimidin-5-yl}acetic acid], the “binding affinity for CRTH2” value [2] is reported as “high affinity” and the “binding selectivity for CRTH2” value [3] is reported as “bind selectively”.

In the case of “piperazine Salt of {4,6-Bis(dimethylamino)-2-(4-(4-(trifluoromethyl)benzamido)benzyl)pyrimidin-5-yl}Acetic Acid”, the “Aqueous Solubility at 25° C.” value [1] is reported as 5400 µg/mL.
